The values that follow come from patent US6653317B2, “Pyrimidine 3-oxide compounds for inducing/stimulating hair growth and/or retarding hair loss” (Societe l'Oreal S.A., priority 1998, dated 2003).

This test addresses T1, prostaglandin endo-peroxidesynthase (PGHS-1) (Ovis aries, UniProt P05979).
T1 construct: isolated from sheep seminal glands; purchased Cayman Chemical 60100; host or cells: sheep seminal glands (tissue-derived)
T1 sequence (P05979 25-600): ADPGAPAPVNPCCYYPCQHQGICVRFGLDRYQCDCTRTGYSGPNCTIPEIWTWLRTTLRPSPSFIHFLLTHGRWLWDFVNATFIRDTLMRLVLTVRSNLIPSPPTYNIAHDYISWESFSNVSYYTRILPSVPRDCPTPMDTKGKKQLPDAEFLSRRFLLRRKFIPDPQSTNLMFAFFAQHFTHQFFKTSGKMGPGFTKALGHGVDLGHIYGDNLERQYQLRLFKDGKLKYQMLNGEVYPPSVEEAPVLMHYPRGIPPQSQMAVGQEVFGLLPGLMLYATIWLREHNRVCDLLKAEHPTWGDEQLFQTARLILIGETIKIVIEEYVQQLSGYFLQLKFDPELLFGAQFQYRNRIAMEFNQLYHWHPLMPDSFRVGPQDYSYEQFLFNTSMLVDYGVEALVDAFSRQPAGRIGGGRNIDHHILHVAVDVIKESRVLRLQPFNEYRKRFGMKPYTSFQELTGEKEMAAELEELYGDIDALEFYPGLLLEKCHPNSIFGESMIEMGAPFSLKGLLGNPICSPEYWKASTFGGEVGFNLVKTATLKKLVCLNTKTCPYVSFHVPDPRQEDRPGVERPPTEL
Kind of test: Measurement of the prostaglandin-endoperoxide synthase (PGHS-1) activating power (oxygen consumption, Clark electrode). The test is classed as biochemical, sheep. To be noted: test compound 0.5 mM; oxidation of arachidonic acid, 37° C., pH 8.00; % relative to the values obtained with the control.
Description: The amount of oxygen required for the oxidation of arachidonic acid was measured by means of the cyclooxygenase activity of the prostaglandin-endo-peroxide synthase, in the presence or absence of the test compound.
The oxygen consumption measurements were taken using a Clark electrode connected to a YSI 5300 oxymeter marketed by Yellow Spring Instruments.
These measurements were taken in an open chamber with constant stirring at a temperature of 37° C.
If a graph recorder was used, the oxygen consumption measurement is expressed in the form of a curve, the maximum slope of which makes it possible to determine the initial rate of the reaction, and from which it is possible to calculate the period for which the initial reaction rate is maintained.
The curve thus obtained, in the absence of any substance other than the ingredients required for the enzymatic reaction, provides the basal activity of the enzyme. The initial rate and the period for which this rate is maintained can be determined under these conditions in a reaction comprising only the enzyme and its substrate.
The activity of the test compounds was measured under the same conditions, by adding the test compound to the reaction medium. The activity of the test compound with respect to cyclooxygenase was evaluated by means of the variation of the slope and the variation of the period for which the maximum rate was maintained.
A solution of 0.1 M Tris and 5 mM EDTA at pH=8.00 (TE solution) was prepared.
The substrate was formulated in the form of a stock solution of potassium arachidonate according to the supplier's procedure (Interchim, France).
The test compounds were prepared in the form of a stock solution with a titre of 5 mM, in a water/alcohol mixture (80/20) and were tested with the same batch of enzyme.
At t=0, 380 μl of TEA buffer preheated to 37° C. were introduced into the measuring chamber and maintained to equilibrate for at least one minute.
At t=1, 300 units of enzyme (PGHS) were introduced.
Recording was initiated, and the mixture was again permitted to stabilize for one minute. The recording obtained provided the reaction baseline.
After a further minute, 10 μl of substrate were introduced and the oxygen consumption was recorded for 2 to 3 minutes.
The initial reaction rate and the period for which this rate was maintained were thus determined.
The experimental conditions were identical to those above, except that the TEA buffer preheated to 37° C. was replaced by an identical buffer containing the test compound at a concentration of 0.5 mM.
The following results are expressed as a % relative to the values obtained with the control.
Turning to `CCCCCCNc1ccnc(N)[n+]1[O-]` [Example 1, 2-Amino-4-hexylaminopyrimidine 3-Oxide], the Activation result is given as “+37%”.
Consider `CCCCCCCCCCCCNc1ccnc(N)[n+]1[O-]` [Example 2, 2-Amino-4-dodecylaminopyrimidine 3-Oxide], for which the Activation entry is “+11%”.
With `CCCCCCCCNc1ccnc(N)[n+]1[O-]` [Example 3, 2-Amino-4-octylaminopyrimidine 3-Oxide], the Activation entry is given as “+14%”.
Take `CCCCCCCCNc1cc(OCCCC)nc(N)[n+]1[O-]` [Example 17, 2-Amino-4-octylamino-6-butyloxypyrimidine 3-Oxide]: the Activation result is listed as “+8%”.
